From article PMC7155171, “Probing the Open Global Health Chemical Diversity Library for Multistage-Active Starting Points for Next-Generation Antimalarials” (ACS Infectious Diseases, 2020)
Where two headings read alike, the source gives them in different places.

Assays:
[1] = system: P. berghei liver stage (PbLuc); experiment: P. berghei luciferase liver stage (PbLuc) assay in HepG2-A16-CD81 hepatocytes; format: cell-based, Plasmodium berghei; conditions: Plasmodium berghei; for Emax: 12pt dose response, maximum inhibition
[2] = system: HepG2-A16-CD81 hepatocytes; experiment: HepG2 cytotoxicity screening (CellTiter-Glo); conditions: for HepG2 cytotoxicity 12pt dose response: Maximum inhibition (%): 12pt dose response
[3] = HepG2 cytotoxicity screening (CellTiter-Glo); conditions: human, uninfected HepG2-A16-CD81 (EGFP) hepatocytes
[4] = biological target: recombinant firefly luciferase (Photinus pyralis, UniProt P08659); experiment: biochemical; conditions: dose response
[5] = HepG2-A16-CD81, 12pt dose response, read-out: PbLuc 12pt dose response: IC50

Sequence of recombinant firefly luciferase (P08659 whole entry): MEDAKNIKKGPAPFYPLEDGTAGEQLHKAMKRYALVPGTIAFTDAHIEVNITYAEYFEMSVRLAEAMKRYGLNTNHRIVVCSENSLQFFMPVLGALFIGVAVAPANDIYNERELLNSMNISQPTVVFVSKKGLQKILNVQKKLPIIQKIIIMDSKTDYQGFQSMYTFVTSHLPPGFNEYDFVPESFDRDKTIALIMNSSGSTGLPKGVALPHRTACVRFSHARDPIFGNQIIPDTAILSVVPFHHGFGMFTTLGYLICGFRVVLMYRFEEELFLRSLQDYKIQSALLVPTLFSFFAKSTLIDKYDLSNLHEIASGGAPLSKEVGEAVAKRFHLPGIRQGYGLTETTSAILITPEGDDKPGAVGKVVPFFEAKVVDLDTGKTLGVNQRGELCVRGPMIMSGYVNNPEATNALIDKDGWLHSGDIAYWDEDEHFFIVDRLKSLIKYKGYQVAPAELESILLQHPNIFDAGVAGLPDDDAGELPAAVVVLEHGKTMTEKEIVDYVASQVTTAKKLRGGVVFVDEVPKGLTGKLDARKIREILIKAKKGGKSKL

Structure (SMILES) | IC50 [1, 5] [µM] | IC50 [3] [µM] | inhibition at 2 µM [3] [%] | other results
CCc1nc(CN2CCCN(c3ncnc4ccsc34)CC2)no1 [DDD01071387] | – | – | – | IC50 ([1]; HepG2-A16-CD81, 48 h, 48 h liver stage, HepG2-A16-CD81, read-out: Pbluc (EEF) IC50): 9.87 µM; IC50 ([2]; HepG2-A16-CD81, read-out: HepG2 tox IC50): > 50 µM
NC(=O)C1CN(C(=O)Nc2cc(Cl)cc(Cl)c2)CCO1 (centres unmarked) [UCSD-0586016] | 1.39 | 16.9 | 11.4 | Emax ([1]; HepG2-A16-CD81, 48 h): 102%; HepG2 cytotoxicity 12pt dose response: Maximum inhibition (%) [2]: 92.5%
CCc1nc(CN2CCCN(c3ncnc4ccsc34)CC2)no1 [UCSD-0620395] | 9.87 | > 50 | 12.5 | HepG2 cytotoxicity 12pt dose response: Maximum inhibition (%) [2]: 49.7%
Cc1ccc(CN2CCCC3(CCN(Cc4ccoc4)CC3)C2)cc1 [UCSD-0791105] | 7.88 | 43.8 | -2.23 | Emax ([1]; HepG2-A16-CD81, 48 h): 99.9%; HepG2 cytotoxicity 12pt dose response: Maximum inhibition (%) [2]: 55.5%
Cc1nc(NCc2nonc2C)cc(C(C)Cn2nc(C)c(C)c2C)n1 (centres unmarked) [UCSD-0799497] | – | – | 87.2 | inhibition at 10 µM ([1]; HepG2-A16-CD81, primary screen, 10 uM): 60.2%
CN(CCc1ccncc1)CCc1nccs1 [UCSD-0805829] | 0.495 | > 50 | 2.05 | Emax ([1]; HepG2-A16-CD81, 48 h): 87.7%; HepG2 cytotoxicity 12pt dose response: Maximum inhibition (%) [2]: -1.84%
CCn1ccnc1CNCC(c1ccc(C)s1)N1CCOCC1 (centres unmarked) [UCSD-0810145] | 38.3 | 46.2 | 16.3 | Emax ([1]; HepG2-A16-CD81, 48 h): 88.9%; HepG2 cytotoxicity 12pt dose response: Maximum inhibition (%) [2]: 56.3%
CC(C)CC(=O)NCc1cccc(OCCN(C)C2CCOCC2)c1 [UCSD-0810838] | > 50 | > 50 | 38.8 | Emax ([1]; HepG2-A16-CD81, 48 h): 39.1%; HepG2 cytotoxicity 12pt dose response: Maximum inhibition (%) [2]: 7.9%
O=C(NC1CC1)c1cc(NC(=O)N2CCOCC2)ccc1Cl [UCSD-0811531] | – | – | 1.26 | –
Cc1n[nH]cc1CNC1CCN(c2cccc(C(F)(F)F)c2)CC1 [UCSD-0814169] | 9.3 | > 50 | -9.01 | Emax ([1]; HepG2-A16-CD81, 48 h): 88.9%; HepG2 cytotoxicity 12pt dose response: Maximum inhibition (%) [2]: 7.17%
CCCNC(=O)CN1CCOC(CC)C1 (centres unmarked) [UCSD-0814421] | – | – | -1.44 | –
Clc1cnccc1NCc1cccc(COC2CCOCC2)c1 [UCSD-0814625] | – | – | 43.7 | –
CC(C)n1cnnc1C1CCCN(S(=O)(=O)CC2CCCC2)C1 (centres unmarked) [UCSD-0815907] | – | – | 27.3 | –
CS(=O)(=O)CCC(=O)NC1(c2cccc(C(F)(F)F)c2)CCC1 [UCSD-0816629] | – | – | -9.29 | –
CCOc1ccccc1CNC(=O)NCC(c1cnn(C)c1)N(C)C (centres unmarked) [UCSD-0816742] | > 50 | > 50 | 13.9 | Emax ([1]; HepG2-A16-CD81, 48 h): 36.1%; HepG2 cytotoxicity 12pt dose response: Maximum inhibition (%) [2]: -5.65%
Cc1cccc(NCc2ncc(C(C)(C)C)o2)c1 [UCSD-0816980] | 16.6 | > 50 | 14.1 | Emax ([1]; HepG2-A16-CD81, 48 h): 73.4%; HepG2 cytotoxicity 12pt dose response: Maximum inhibition (%) [2]: 11.5%
CC(NCc1cccs1)c1ccc(OCc2nccn2C)cc1 (centres unmarked) [UCSD-0817286] | – | – | -3.54 | –
CCc1nnsc1C(=O)NC1CCN(CCOc2ccc(Br)cc2)CC1 [UCSD-0818165] | – | – | 23.1 | –
Cc1cc(Br)cnc1NCCN1CCC(N(C)C)CC1 [UCSD-0818517] | – | – | 4.34 | –
CC(C)CC(C)N(C)C(=O)CCn1cccn1 (centres unmarked) [UCSD-0818578] | – | – | -0.31 | –
Cc1nc(C(=O)N2CC[C@@]3(C[C@@H](NS(C)(=O)=O)CCO3)C2)cs1 [UCSD-0821817] | – | – | 25.6 | –
c1ccc(OC2COC3(CCN(Cc4ccccn4)CC3)C2)cc1 (centres unmarked) [UCSD-0822599] | – | – | 16.7 | –
CN(Cc1ccncc1)C1COC2(CCN(Cc3nccn3C)CC2)C1 (centres unmarked) [UCSD-0822929] | – | – | 2.08 | –
CCc1ccccc1OC1CN(C(=O)c2ccnc(OC)c2)C1 [UCSD-0824378] | 16.6 | > 50 | 8.15 | Emax ([1]; HepG2-A16-CD81, 48 h): 80.5%; HepG2 cytotoxicity 12pt dose response: Maximum inhibition (%) [2]: 46.8%
CN1CCN(CCc2ncnn2-c2ccc3c(c2)OCO3)CC1 [UCSD-0825202] | – | – | 8.32 | –

Structure (SMILES) | IC50 [1, 5] [µM] | IC50 [3] [µM] | inhibition at 2 µM [3] [%] | other results
O=C(O)c1cccnc1N1CCN(Cc2ccc(F)cc2)C(CCO)C1 (centres unmarked) [UCSD-0826099] | > 50 | > 50 | 9.42 | Emax ([1]; HepG2-A16-CD81, 48 h): 46.3%; HepG2 cytotoxicity 12pt dose response: Maximum inhibition (%) [2]: 4.04%
COc1ccc(CN2CCC=C(C(C)NC(C)=O)C2)cc1 (centres unmarked) [UCSD-0826536] | – | – | 6.35 | –
OC(c1ccccn1)C1CCN(Cc2cc3n(n2)CCNC3)CC1 (centres unmarked) [UCSD-0826546] | – | – | -15.7 | –
CN1CCC(N(C)CCC(=O)N2CCC(CCc3ccccc3)CC2)C1 (centres unmarked) [UCSD-0826822] | – | – | 18.9 | –
CCc1c(C(=O)N2CCN(C)[C@@H]3CS(=O)(=O)C[C@@H]32)[nH]c2ccccc12 [UCSD-0827053] | – | – | -0.18 | –
Cc1nc(NCc2noc(C3CCCO3)n2)c2sccc2n1 (centres unmarked) [UCSD-0827338] | – | – | 37.4 | –
Cc1ccc2cc(C3(O)CCN(C(=O)CSC(C)C)CC3)ccc2n1 [UCSD-0827397] | 16.9 | > 50 | 33.3 | HepG2 cytotoxicity 12pt dose response: Maximum inhibition (%) [2]: 39.9%
CC(C)(C)c1ncc(C(=O)NCCSc2ccccn2)c(O)n1 [UCSD-0828026] | – | – | 27.1 | –
COc1cccc(CN2CCC(CO)(Cc3ccc(Cl)cc3)CC2)c1O [UCSD-0828601] | 4.59 | 12.2 | 2.59 | Emax ([1]; HepG2-A16-CD81, 48 h): 95%; HepG2 cytotoxicity 12pt dose response: Maximum inhibition (%) [2]: 82.8%
O=C1N(CC2CC2)CCCC1(O)CN1CCc2[nH]ncc2C1 (centres unmarked) [UCSD-0829471] | – | – | 2.23 | –
C[C@H](c1ccc(F)cc1)n1c(C2CCN(C)CC2)n[nH]c1=O [UCSD-0830237] | 3.28 | > 50 | 3.06 | Emax ([1]; HepG2-A16-CD81, 48 h): 86.3%; HepG2 cytotoxicity 12pt dose response: Maximum inhibition (%) [2]: 8.15%
Cc1ccc(NC(=O)CNC(C)CN2CCCCC2)c(F)c1 (centres unmarked) [UCSD-0831198] | – | – | -1.94 | –
N[C@@H]1CC[C@H](C(=O)NCCn2cc(Cl)cn2)C1 [UCSD-0831589] | – | – | -3.85 | –
NCC1CCN(C2CCN(c3ccc(-c4ccco4)cc3)CC2)C1 (centres unmarked) [UCSD-0833151] | 4.7 | 14.1 | 3.93 | Emax ([1]; HepG2-A16-CD81, 48 h): 99.4%
COc1ccc(C(=O)C2CCCN(c3cc(OC)ncn3)C2)c(C)c1 (centres unmarked) [UCSD-0833269] | – | – | 27.4 | –
COc1cc(Oc2ncccc2C(F)(F)F)ccc1CN1CCCC1 [UCSD-0833465] | – | – | 1.7 | –
Cc1cc(C)cc(CN2CCN(Cc3cccc(CCN)c3)CC2=O)c1 [UCSD-0834514] | – | – | -1.16 | –
Cc1csc2ncnc(N3CCC(Cn4cc(C(C)(C)O)nn4)CC3)c12 [UCSD-0835726] | 4.82 | > 25 | 4.96 | Emax ([1]; HepG2-A16-CD81, 48 h): 82.1%; Emax ([4]; maximum inhibition, read-out: rLuc inhibition dose response: Maximum inhibition (%)): 5.67%; IC50 ([4]; read-out: rLuc inhibition dose response: IC50): > 25 µM
CN(C)S(=O)(=O)c1csc(C(=O)N2CCSCC2)c1 [UCSD-0836661] | – | – | 3.97 | –
Nc1cc(N2CCC(c3cc(Cc4ccccc4)n[nH]3)CC2)ccn1 [UCSD-0836781] | – | – | -2.51 | –
CCS(=O)(=O)N(C)c1ccc(C(=O)N2CCCC(C)C2)cc1 (centres unmarked) [UCSD-0838984] | – | – | 8.06 | –
O=C1NCCN1C1CCN(Cc2nc(-c3ccccc3)no2)CC1 [UCSD-0839728] | – | – | -6.19 | –
Cc1nn(C)c(Cl)c1C1CCCN1C(=O)c1ccc(C(N)=O)cn1 (centres unmarked) [UCSD-0841146] | – | – | 26.8 | –
COc1cccc(-n2nnc(C(=O)N3CCN(C)CC3C)c2C)c1 (centres unmarked) [UCSD-0845525] | – | – | 69.9 | –
